Test results as given in publication PMC5487681, “Identification of Antifungal H^+-ATPase Inhibitors with Effect on Plasma Membrane Potential” (Antimicrobial Agents and Chemotherapy, 2017).
≈ marks a conversion by molar mass, not a printed value. Read-outs that look alike come from different tables or passages of the source. Residues, ends and D or L forms follow the SMILES beside them.

Assays:
[1] = system: Aspergillus fumigatus ATCC 13073; assay: microbe, parasite or virus in culture; conditions: for MIC: Aspergillus fumigatus, ATCC13073, 72 h, pH 7, read-out: MIC A. fumigatus
Experimental: (§1) The following fungal isolates were used: Saccharomyces cerevisiae ATCC 9763, Candida albicans SC5314, Candida parapsilosis ATCC 22019, Candida tropicalis Ct016, Candida glabrata ATCC 90030, Aspergillus fumigatus ATCC 13073, and Aspergillus flavus ATCC MYA-1005. Frozen stocks of yeast isolates in glycerol (final concentration, 20%) were prepared by growing the cells to log phase in YPD medium at 30°C and 150 rpm. Frozen stocks of mold spores were prepared by harvesting spores from 7-day-old potato glucose agar plates in phosphate-buffered saline, 0.1% Tween 80 and aliquoting these spores in the presence of glycerol (final concentration, 20%). The cells were stored at −80°C. The cells or spores were thawed and diluted to a final concentration of 0.5 × 10^5 to 2.5 × 10^5 CFU/ml in sterile Milli-Q H2O. […] The plate was incubated for 20 to 24 h at 34°C (72 h for molds), and the OD490 was measured on a Victor X5 (PerkinElmer) plate reader. Mold growth assay plates were also visually inspected. The MIC was defined as the lowest concentration inhibiting the visual growth of the microorganism.

[2] = system: Candida albicans SC5314; assay: microbe, parasite or virus in culture; conditions: for MIC: Candida albicans, SC5314, pH 7, read-out: MIC C. albicans
Experimental: as §1

[3] = system: Candida glabrata ATCC 90030; assay: microbe, parasite or virus in culture; conditions: for MIC: Nakaseomyces glabratus, ATCC90030, pH 7, read-out: MIC C. glabrata
Experimental: as §1

[4] = system: Candida parapsilosis ATCC 22019; assay: microbe, parasite or virus in culture; conditions: for MIC: Lodderomyces parapsilosis, ATCC22019, pH 7, read-out: MIC C. parapsilosis
Experimental: as §1

[5] = system: Candida tropicalis Ct016; assay: microbe, parasite or virus in culture; conditions: for MIC: Candida tropicalis, CT016, pH 7, read-out: MIC C. tropicalis
Experimental: as §1

[6] = molecular target: S. cerevisiae Pma1 (Saccharomyces cerevisiae, UniProt P05030); assay: ATP hydrolysis assay, S. cerevisiae plasma membranes containing Pma1; assay type: biochemical; parameters: containing the full-length cDNA of the S. cerevisiae plasma membrane H^+-ATPase isoform PMA1; made in house; host or cells: S. cerevisiae RS72 (PMA1 cDNA under PMA1 promoter); also wild-type S. cerevisiae ATCC 9763
Experimental: Plasma membranes containing Pma1 were isolated from S. cerevisiae RS72 cells containing the full-length cDNA of the S. cerevisiae plasma membrane H^+-ATPase isoform PMA1 under the control of the PMA1 promoter, as described in reference.
A 100-ml overnight culture in YPD medium [10 g/liter yeast extract (BD, Sparks, MD), 20 g/liter Bacto peptone (BD), 20 g/liter D-(+)-glucose] was transferred to 1 liter YPD medium and grown at room temperature and 150 rpm for 18 h for wild-type S. cerevisiae (ATCC 9763) and 7 h for C. albicans. The cells were harvested and washed in Milli-Q H2O by centrifugation at 3,360 × g. The cells were glucose activated by the addition of 10% D-(+)-glucose for 10 min while shaking. The cells were then centrifuged at 3,360 × g for 3 min and frozen. Cells (60 to 80 g, wet weight) were then disrupted by bead beating (BioSpec, Bartlesville, OK) and processed as described in reference to prepare the plasma membranes. […] All batches were validated by ATPase hydrolysis activity, pH optimum, and orthovanadate sensitivity.
The protein activity levels were determined by measuring the amount of free phosphate produced from the ATP hydrolysis reaction. The assay was performed as described in reference. Each well contained ATPase enzyme, 2 μl of inhibitor (usually in the range of 333 to 0.01 μM) dissolved in dimethyl sulfoxide (DMSO) (Duchefa Biochemie, Haarlem, The Netherlands), and an assay buffer dependent on the enzyme for a final volume of 60 μl. Possible compound precipitation in the assay buffer was monitored using a Nephelostar plate reader measuring turbidity, and the information was taken into account in the IC50 determination. Pma1 assay buffer consisted of 20 mM 3-(N-morpholino)propanesulfonic acid (MOPS)–NaOH, pH 6.5 or 7.0, 8 mM MgSO4, 50 mM KNO3 (a vacuolar ATPase inhibitor), 25 mM sodium azide (a mitochondrial ATPase inhibitor), and 250 μM sodium molybdate (an acid phosphatase inhibitor). SERCA buffer consisted of 9 mM MOPS-NaOH, pH 7, 2.7 mM MgCl2, 90 μM CaCl2, and 72 mM KCl. Na^+,K^+-ATPase buffer consisted of 30 mM MOPS-NaOH, pH 7, 40 mM NaCl, 4 mM MgCl2, and 20 mM KCl. The concentration of protein was adjusted to obtain a signal of the optical density at 860 nm (OD860) of between 0.5 and 1.0 in the untreated samples (for all Pma1 batches, ∼1 to 2 μg/well; for SERCA and Na^+,K^+-ATPase, ∼0.1 to 0.2 μg/well). […]

[7] = Table 1, ATP hydrolysis at pH 6.5 (compounds marked b), 2 to 3 experiments, read-out: IC50 Pma1
[8] = Table 1, ATP hydrolysis at pH 7, 2 to 3 experiments, read-out: IC50 Pma1
[9] = ATP hydrolysis, S. cerevisiae Pma1, read-out: IC50 for Pma1

S. cerevisiae Pma1, sequence (P05030 whole entry, canonical isoform): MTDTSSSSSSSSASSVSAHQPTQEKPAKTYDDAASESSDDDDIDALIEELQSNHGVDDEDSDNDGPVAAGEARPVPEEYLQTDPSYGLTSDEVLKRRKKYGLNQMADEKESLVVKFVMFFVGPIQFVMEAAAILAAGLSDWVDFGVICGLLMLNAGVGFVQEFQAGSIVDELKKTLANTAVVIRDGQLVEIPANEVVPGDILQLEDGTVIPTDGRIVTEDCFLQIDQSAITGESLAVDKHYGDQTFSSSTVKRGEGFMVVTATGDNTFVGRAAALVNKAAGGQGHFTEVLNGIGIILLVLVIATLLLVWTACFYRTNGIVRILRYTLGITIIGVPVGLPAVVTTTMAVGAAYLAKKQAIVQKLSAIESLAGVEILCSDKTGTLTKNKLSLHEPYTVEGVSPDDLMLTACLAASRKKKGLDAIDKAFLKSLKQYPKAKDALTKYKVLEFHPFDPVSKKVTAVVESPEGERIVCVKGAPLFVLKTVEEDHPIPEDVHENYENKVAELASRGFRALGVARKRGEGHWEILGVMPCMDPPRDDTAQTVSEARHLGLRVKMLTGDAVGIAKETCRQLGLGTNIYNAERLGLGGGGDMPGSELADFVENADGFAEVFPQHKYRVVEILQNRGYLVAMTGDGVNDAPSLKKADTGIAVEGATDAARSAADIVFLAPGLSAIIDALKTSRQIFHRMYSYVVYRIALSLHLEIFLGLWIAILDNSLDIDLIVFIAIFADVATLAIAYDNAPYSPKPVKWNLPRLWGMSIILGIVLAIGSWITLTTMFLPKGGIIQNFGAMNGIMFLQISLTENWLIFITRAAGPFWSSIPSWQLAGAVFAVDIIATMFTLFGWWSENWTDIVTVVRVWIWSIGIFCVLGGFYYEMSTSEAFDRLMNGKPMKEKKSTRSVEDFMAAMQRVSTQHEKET

SMILES	MIC for growth inhibition, A. fumigatus ([1]; ATCC 13073)	MIC for growth inhibition, C. albicans ([2]; SC5314)	MIC for growth inhibition, C. glabrata ([3]; ATCC 90030)	MIC for growth inhibition, C. parapsilosis ([4]; ATCC 22019)	MIC for growth inhibition, C. tropicalis ([5]; Ct016)	IC50 ([6]; Table 2, pH 7, n = 2, read-out: IC50 for ATP hydrolysis, S. cerevisiae Pma1)	Selectivity for Pma1 over Na^+,K^+-ATPase ([6]; from IC50 of Table 2)	MIC [1]	MIC [2]	MIC [3]	MIC [4]	MIC [5]	IC50 [6, 7]	IC50 [6, 8]	IC50 [6, 9]
N=C(N)NCCC[C@@H](N)C(=O)N[C@H](CCCNC(=N)N)C(=O)N[C@H](CCCNC(=N)N)C(=O)N[C@H](Cc1ccccc1)C(=O)N[C@H](Cc1c[nH]c2ccccc12)C(=O)N[C@H](Cc1c[nH]c2ccccc12)C(=O)N[C@H](Cc1ccccc1)C(=O)N[C@H](CCCNC(=N)N)C(=O)N[C@H](CCCNC(=N)N)C(=O)N[C@H](CCCNC(=N)N)C(N)=O [BM2, reference compound] (HELM PEPTIDE1{[dR].[dR].[dR].[dF].[dW].[dW].[dF].[dR].[dR].[dR].[am]}$$$$V2.0)	>150 µM	15 µM	150 µM	26 µM	4.7 µM	1.2 ± 0.1 µM	8 fold								
O=C1/C(=C/c2ccc(-c3cc(Cl)ccc3Cl)o2)C=C(c2ccccc2)N1c1ccccc1O [Compound 1]								> 150 µM	> 150 µM	> 150 µM	> 150 µM	> 150 µM	0.04 ± 0.035 µM		
COc1ccc(-c2cc(C(=O)Nc3ccc(C(C)C)cc3)c3ccccc3n2)c(OC)c1 [Compound 3]								> 150 µM	> 150 µM	> 150 µM	> 150 µM	> 150 µM		2.5 ± 2.5 µM	
CC1CCCCN1CC(O)Cn1c(-c2ccccc2)c(-c2ccccc2)c2ccc3ccccc3c21 (stereo not drawn) [Compound 4]								> 38 µM	13 µM (≈ 6.17 µg/mL)	> 38 µM	> 38 µM	12 µM (≈ 5.7 µg/mL)	3.7 ± 0.7 µM		
CCOc1ccc2nc3cc(NC(=O)c4cccc(Br)c4)ccc3c(N)c2c1 [Compound 5]								> 75 µM	6.5 µM (≈ 2.84 µg/mL)	5.8 µM (≈ 2.53 µg/mL)	7.5 µM (≈ 3.27 µg/mL)	7.5 µM (≈ 3.27 µg/mL)	4.4 ± 0.6 µM		< 25 µM
Cc1c(-c2ccccc2)[o+]c2ccccc2c1C#Cc1ccccc1 [Compound 6]								> 150 µM	> 150 µM	> 150 µM	> 150 µM	> 150 µM	5 ± 3 µM		
Oc1cccc(Nc2nc(-c3ccc(Cl)c(Cl)c3)cs2)c1 [Compound 7]								> 150 µM	7.3 µM (≈ 2.46 µg/mL)	4.7 µM (≈ 1.58 µg/mL)	8.2 µM (≈ 2.77 µg/mL)	26 µM (≈ 8.77 µg/mL)	5.5 ± 0.3 µM		< 25 µM
COc1ccc(-c2cc(C(=O)Nc3ccc4c(c3)OCCO4)c3ccccc3n2)c(OC)c1 [Compound 8]								> 38 µM	> 38 µM	> 38 µM	> 38 µM	> 38 µM		6.9 ± 2 µM	
COc1cccc(Nc2nc(Cl)nc(Nc3cccc(OC)c3)n2)c1 [Compound 9]								> 150 µM	> 150 µM	> 150 µM	> 150 µM	> 150 µM		9.2 ± 1 µM	
